From patent publication US11291712B2, “Bacterial protein compositions and uses thereof” (The United States Government as Represented by the …, priority 2017, dated 2022) come the findings set out here.

Test [1] has as its system A. baumannii strain AB5075 VIR-O and AV-T variants. As to the kind of experiment: Antimicrobial killing assays (time-kill). The test is classed as cell-based, Acinetobacter baumannii. The conditions noted are these: equal mixture of VIR-O and AV-T, 1 hour, CRAMP 10 μg/mL, lysozyme 10 mg/mL, LL-37 15 μg/mL, H2O2 0.01%. The protocol:
An equal mixture of VIR-O and AV-T variants were grown to early-log phase in 2 mL LB broth, or LB with tetracycline 6 μg/mL for strains with plasmids. A 5 μL aliquot of each culture was mixed together in 250 μL of 0.1× tryptone/yeast extract (1 g tryptone, 0.5 g yeast extract/liter). Cells were mixed by vortexing and serial dilutions were plated on 0.5×LB agar plates to assess the initial CFU's for both VIR-O and AV-T variants. Various antimicrobials were then added at the following final concentrations: CRAMP (10 μg/mL), lysozyme (10 mg/mL), LL-37 (15 μg/mL) and H2O2. (0.01%). Cells were treated for 1 hour and dilutions were plated on 0.5×LB agar plates to enumerate the surviving VIR-O and AV-T variants.

Test [2] relates to A. baumannii strain AB5075 VIR-O and AV-T cells. The test can be described thus: Sensitivity to disinfectants. The conditions noted are these: BZT 0.01%, BAK 0.004%, CHG 0.008%; 30 min at room temperature. The test is classed as cell-based, Acinetobacter baumannii. As for the experimental part: Overnight standing bacterial cultures at room temperature were sub-cultured in LB broth and grown at 37° C. with shaking to an OD600˜0.15. Nine hundred ninety microliters of culture were then added to tubes containing 10 μL of the appropriated disinfectants, BZT (Sigma-Aldrich), BAK (Sigma-Aldrich) and CHG (Sigma-Aldrich), respectively. Tubes were incubated at room temperature for 30 min. Cultures were then serially diluted and plated for CFU enumerations.

Entries after “also recorded” stand apart in the source; their conditions may differ.

Turning to `OO` [H2O2, hydrogen peroxide], the figures for the “survival of VIR-O (O) cells compared to AV-T (T) cells after treatment with the antimicrobial” value in test [1] and in test [1] (listed as hydrogen peroxide) were “resistant” and “VIR-O cells vastly outnumbered AV-T cells”, respectively.

As to `CC(C)(C)CC(C)(C)c1ccc(OCCOCC[N+](C)(C)Cc2ccccc2)cc1` [benzethonium chloride], in test [2], the “resistance of VIR-O (O) cells to the disinfectant compared to AV-T (T) cells” value (“resistance of VIR-O … compared to AV-T (T) cells” for short) is “more resistant; also recorded: increased resistance”.

For the compound `N=C(NCCCCCCNC(=N)NC(=N)Nc1ccc(Cl)cc1)NC(=N)Nc1ccc(Cl)cc1.O=C(O)[C@H](O)[C@@H](O)[C@H](O)[C@H](O)CO.O=C(O)[C@H](O)[C@@H](O)[C@H](O)[C@H](O)CO` [chlorhexidine gluconate], the “resistance of VIR-O … compared to AV-T (T) cells” value in test [2] is given as “more resistant; also recorded: increased resistance”.

On to “CRAMP: murine cationic antimicrobial peptide (ISRLAGLLRKGGEKIGEKLKKIGQKIKNFFQKLVPQPE; UniProt P51437 135-172, looked up)”, for which the “survival of VIR-O (O) cells compared to AV-T (T) cells after treatment with the antimicrobial” value in test [1] is “resistant; also recorded: VIR-O cells vastly outnumbered AV-T cells”.

For “LL-37: human antimicrobial peptide, the human orthologue of CRAMP”, the “survival of VIR-O (O) cells compared to AV-T (T) cells after treatment with the antimicrobial” value in test [1] is listed as “VIR-O cells also outnumbered AV-T; also recorded: resistant”.

On to benzalkonium chloride, for which the “resistance of VIR-O … compared to AV-T (T) cells” value in test [2] was “more resistant; also recorded: increased resistance”.

As to lysozyme, the “survival of VIR-O (O) cells compared to AV-T (T) cells after treatment with the antimicrobial” value in test [1] is “resistant; also recorded: VIR-O cells vastly outnumbered AV-T cells”.
